Laboratory results from patent US9682970B2, “Fluorescent compounds and uses thereof” (BIOTIUM, INC., priority 2012, dated 2017).
Blank lines part the entries; values can stand above or below the molecule they belong to.

Experiments:
[1] = Photostability of the dye; assay type: physicochemical
[2] = system: calf thymus dsDNA; experiment: Absorption and emission spectra of nucleic acid binding dyes; assay type: physicochemical
Experimental: All absorption spectra were measured on a Beckman Coulter DU-800 spectrophotometer at room temperature. All fluorescence spectra were measured on a Hitachi F-4500 fluorescence spectrophotometer at room temperature. To record the complete emission profiles, excitation wavelengths were set 30 nm shorter than the absorption maxima of the dyes. The dsDNA used was calf thymus dsDNA from Sigma. When dsDNA was present in the dye solutions, spectra were recorded after the dyes had been incubated with the DNA for at least 10 minutes.

[3] = system: HeLa cells fixed in 4% paraformaldehyde; experiment: Staining of fixed cells with Compound 36; assay type: cell-based; conditions: 10 uM in blocking buffer, 10 minutes, Cy3 channel
Experimental: The high photostability and relatively long emission wavelength (˜565 nm) make the dye a useful cell counterstain. HeLa cells were plated on an 8-chambered Lab-Tek cover glass at 4×10^4 cells per chamber and cultured overnight. The day after plating, the cells were fixed in 4% paraformaldehyde/PBS for 15 minutes at room temperature. The cells were rinsed in PBS and blocked in PBS containing 5% normal goat serum and 0.1% Triton X-100 for 30 minutes at room temperature. Cells were stained with 10 uM Dye 36 in blocking buffer for 10 minutes at room temperature and imaged in the same solution by confocal microscopy in the Cy3 channel of a Zeiss LSM 700 confocal microscope.

[4] = system: live HeLa cells; experiment: Staining of live cells; assay type: cell-based; conditions: 10 uM, 30 minutes at 37 C
Experimental: (§1) The images in the top panel of FIG. 6 were obtained under the following conditions: live HeLa cells were incubated with 10 uM compound 7, compound 8, or Dye 5 for 30 minutes at 37 C in a CO2 incubator. The images in the bottom panel of FIG. 6 were obtained under the following conditions: HeLa cells were formaldehyde-fixed, permeabilized, and blocked according to standard immunofluorescence staining protocols. Cell were stained with 10 μM compound 7, 8 or 5 in PBS/5% BSA for 30 minutes, then washed with PBS buffer and imaged. Live and fixed cells were imaged using an Olympus epifluorescence microscope equipped with a FITC filter set, Retiga 2000R Fast 1394 camera (QImaging), and Image-Pro Express software (Media Cybernetics).

[5] = system: HeLa cells formaldehyde-fixed, permeabilized; experiment: Staining of fixed cells; assay type: cell-based; conditions: 10 μM in PBS/5% BSA, 30 minutes
Experimental: as §1

[6] = system: adherent HeLa cells; experiment: Cell number quantitation in adherent cell cultures; assay type: cell-based; conditions: 10 uM, 30 minutes at 37° C., 50,000 to 100 cells per well
Experimental: The data in FIG. 7B was obtained under the following conditions: adherent HeLa cells were seeded at densities ranging between 50,000 and 100 cells per well in optical bottom black 96 well tissue culture plates and allowed to adhere overnight at 37° C. in a 5% CO2 incubator. On the day after seeding, the cells were washed with HBSS and incubated in HBSS containing Dye 5 or Dye 7 at 10 uM for 30 minutes at 37° C. Fluorescence was read at 468/507 nm in a Molecular Devices Gemini XS fluorescent plate reader. Triplicate samples were averaged and background fluorescence (no cells) was subtracted. Fluorescence values were plotted against the DNA amount (ng/well). The R^2 values for linear regression are shown next to each curve. For comparison, cell numbers were quantitated using the CyQUANT NF Cell Proliferation Assay Kit (Life Technologies according to the kit manual.

[7] = system: calf thymus DNA; experiment: DNA quantitation in solution (fluorescence linearity)
Experimental: compounds 5, 7 and related compounds according to the invention can be used to quantitate double-stranded DNA in solution with high sensitivity and accuracy over a wide range of DNA concentrations, as shown in FIGS. 4 and 5. […] At […] dye concentration, compound 5 fluorescence is linear from 0.04-250 ng (FIG. 5).
The data shown in FIG. 4A was obtained under the following conditions: compound 7 at 0.5 μM was prepared in TE buffer (10 mM Tris, 1 mM EDTA, pH 7.5), and pipetted into wells of black 96-well plates at 200 μL per well. Two-fold dilutions of calf thymus DNA were prepared in TE buffer starting at 0.2 ng/uL, and 10 μL of each DNA dilution was added per 96 well to obtain a standard curve of 2 ng to 0.015 ng per well. The plates were incubated for five minutes at room temperature, protected from light, then read at 468 nm excitation and 507 nm emission using a Molecular Devices Gemini XS fluorescent plate reader. Triplicate samples were averaged and background fluorescence (no DNA) was subtracted. Fluorescence values were plotted against the DNA amount (ng/well). […] The R^2 values for linear regression are shown next to each curve. The data shown in FIG. 4B were obtained under similar condition except that compound 5 at 1 uM was used and serial DNA dilutions were from 250 ng to 0.04 ng.

[8] = system: Jurkat cells; experiment: Cell number quantitation in cell suspensions; assay type: cell-based; conditions: 10 uM final dye, 30 minutes at 37° C., 440,000 to 860 cells per well
Experimental: The data in FIG. 7A were obtained under the following conditions: compound 5 or 7 at 20 uM in Hank's Balanced Salt Solution (HBSS) was pipetted into optical bottom black 96 well tissue culture plates at 50 μL per well. Two-fold serial dilutions of Jurkat cells in suspension culture were prepared in Hank's Balanced Salt Solution (HBSS) and pipetted into black 96 well plates at 50 μL per well to obtain a dilution curve of 440,000 to 860 cells per well, and a final dye concentration of 10 uM. Plates were incubated for 30 minutes at 37° C. in a 5% CO2 incubator, and fluorescence was read at 468/507 nm in a Molecular Devices Gemini XS fluorescent plate reader. Triplicate samples were averaged and background fluorescence (no cells) was subtracted. Fluorescence values were plotted against the DNA amount (ng/well). The R^2 values for linear regression are shown next to each curve. For comparison, cell numbers were quantitated using the CyQUANT NF Cell Proliferation Assay Kit (Life Technologies) according to the kit manual.

[9] = system: CD3e PCR products (WT or single base pair change); experiment: High-resolution melt curve analysis (HRM); parameters: species or system human; conditions: compound 7 (0.07 μM) spiked into EvaGreen Master Mix
Excerpt: The addition of a small amount of compound 7 to existing real time HRM Master Mixes can improve the resolution of the melting curves leading to higher confidence calls by HRM software. FIGS. 12 and 13 show normalized graphs (12A, 13A) and difference graphs (12B, 13B) from the HRM analysis of PCR products generated from template plasmids containing either a WT copy of CD3e or a version with a single base pair change. The genotype calls of the HRM software are also shown (12C, 13C).
The data in FIGS. 12 and 13 were collected under the following conditions: PCR reactions were performed as in FIG. 10 with 500 nM CD3e Forward primer (5′-[…]-3′) and […] CD3e Reverse primer (5′-[…]-3′). To each reaction, one microliter of approximately 1×10^6 copies/μl pME-human CD3e-6× His-HA was added, either with a wild type (WT) sequence or with a single nucleotide change (C to T) at base 54 from the start codon of the CD3e sequence. HRM analysis was performed on the RotorGeneQ immediately following template amplification from a temperature range of 76.5-86.5° C. ramping 0.1° C. every two seconds after initial 90 second pre-melt conditioning.

[10] = system: linearized GAPDH-containing plasmid DNA; experiment: Real-time PCR with plasmid DNA; conditions: 0.34 uM dye, 5×10^5 copies plasmid
Experimental: Compound 7 and related dyes can be used in real time PCR experiments to monitor amplification of target plasmid DNA. In FIG. 8, 5×10^5 copies of linearized GAPDH-containing plasmid DNA or water (non-template controls, NTC) were added to PCR reaction mixes containing 0.34 uM of either SYBR Green I (lines with solid diamonds (DNA) or “x's” (water)) or Compound 7 (lines with triangles (DNA) or circles (water)) and real time PCR was performed. […] The data in FIG. 8 were collected under the following conditions: PCR reactions consisted of a final concentration of 50 mM Tris-HCl (pH 8.6), 3 mM MgCl2, 50 μg/ml non-acetylated BSA (Sigma), 200 μM dNTPs (New England BioLabs), 500 nM GAPDH Forward primer ([NT]), 500 nM GAPDH Reverse primer ([NT]) (Integrated DNA Technologies), 1 U Hot-Start Cheetah Taq (Biotium, Inc.) and either 0.34 uM SYBR Green I (Life Technologies) or 0.34 uM compound 7. One microliter of 5×10^5 copies linearized pCMV-SPORT6 GAPDH plasmid (Open Biosystems) was added to each 20 ul reaction. Real time PCR was performed using the RotorGeneQ with the following cycling conditions: 95° C. for 2 minutes, followed by 45 cycles of 95° C. for 5 seconds and 60° C. for 30 seconds, with data acquisition during the elongation stage on the green channel.

[11] = system: GAPDH cDNA from Jurkat cell purified mRNA; experiment: Real-time PCR with cDNA; conditions: 0.34 uM dye
Experimental: Compound 7 and related dyes can be used in real time PCR experiments to monitor amplification of target cDNA. In FIG. 9, serial dilutions of total cDNA generated from Jurkat cell purified mRNA were added to PCR reaction mixes containing 0.34 uM compound 7 and real time PCR was performed.
The data in FIG. 9 were collected under the following conditions: mRNA was purified from 4×10^6 Jurkat cells using Qiagen's RNeasy Kit and cDNA was then generated using oligo-dT primers and the ProtoScript First Strand cDNA Synthesis Kit (New England BioLabs). Serial 1:2 dilutions of the cDNA in water were prepared and added to PCR reactions consisting of a final concentration of 25 mM Tris-HCl (pH 8.6), 5 mM KCl, 10 mM (NH4)2SO4, 2 mM MgCl2, 2.5% glycerol, 5% DMSO, 200 uM dNTPs (New England BioLabs), 0.01% Tween-20, non-acetylated BSA (Sigma), 500 nM GAPDH Forward primer (5′-GAAGGTGAAGGTCGGAGTC-3′), 500 nM GAPDH Reverse primer (5′-[…]-3′) (Integrated DNA Technologies), 1 U Taq polymerase (Syzygy) modified using a HotStart Polymerase Modification Kit (Biotium, Inc.) and 0.34 uM compound 7. One microliter cDNA was added to each 20 ul reaction. Real time PCR was performed using the RotorGeneQ as described for FIG. 8.

[12] = in the presence of dsDNA, 10 mM pH 7.4 Tris buffer, room temperature
[13] = 0.5 μM dye concentration, DNA 0.015-2 ng

- photostability [1]: high
- emission wavelength [2]: ~565 nm
SMILES: CC(=N)NCc1ccc2c(c1)C(C)(C)C(=CC(C)=CC1=[N+](C)c3ccc(CNC(C)=N)cc3C1(C)C)N2C [Compound 36]
- staining of nuclei of fixed cells [3]: good specificity

SMILES: CCCN(CCCNC1=CC(=Cc2sc3cccc4c3[n+]2CCC4)c2ccccc2N1c1ccccc1)C(=N)N [compound 8]
- staining of nuclei of live cells [4]: can specifically stain the nuclei
- staining of nuclei of fixed cells [5]: can specifically stain the nuclei

- absorption maximum [2, 12]: ~470 nm
- emission maximum [2, 12]: ~520 nm
SMILES: CCCN(CCCNC1=CC(=Cc2sc3ccccc3[n+]2C)c2ccccc2N1c1ccccc1)C(=N)N [compound 5]
- quantitation of cell numbers in adherent cell cultures [6]: can be used to quantitate cell numbers
- staining of nuclei of live cells [4]: can specifically stain the nuclei
- DNA amount range of linearity of fluorescence ([7]; 1 uM concentration (FIG. 4B)): 0.05 to 250 ng
- DNA amount range over which fluorescence is linear ([7]; 1 mM dye concentration): 0.04 to 250 ng
- fluorescence upon DNA binding ([2]; 10 mM pH 7.4 Tris, with DNA): highly fluorescent
- staining of nuclei of fixed cells [5]: can specifically stain the nuclei
- quantitation of cell numbers in cell suspensions [8]: can be used to quantitate cell numbers

SMILES: CCCN(CCCNC1=CC(=Cc2sc3cccc4c3[n+]2CCC4)c2ccccc2N1c1ccccc1)C1=NCCN1 [compound 7]
- quantitation of cell numbers in adherent cell cultures [6]: can be used to quantitate cell numbers
- staining of nuclei of live cells [4]: can specifically stain the nuclei
- effect on HRM analysis resolution [9]: improves HRM analysis resolution
- sensitivity (slope of the titration curve) compared to PicoGreen [7, 13]: more sensitive than PicoGreen
- staining of nuclei of fixed cells [5]: can specifically stain the nuclei
- Ct value (in words) [10]: early
- amplification of target amplicon [10]: efficient amplification
- endpoint fluorescent signal [10]: high
- amplification of target amplicon from serial cDNA dilutions [11]: efficient amplification
- quantitation of cell numbers in cell suspensions [8]: can be used to quantitate cell numbers

SMILES: CN(C)CCCN(CCCN(C)C)c1cc(C=C2Sc3ccccc3N2C)c2ccccc2[n+]1-c1ccccc1 [PicoGreen, reference compound]
- linearity of fluorescence at lower DNA concentrations [7, 13]: lower than that of compound 7
